The target in experiment [1] is PASK (Homo sapiens (Human), UniProt Q96RG2). The experiment can be described thus: PAS Kinase FRET Assay. It is filed as biochemical. Conditions: TR-FRET assay; read-out: IC50 Kinase Domain. The essentials:
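Reaction buffer: 50 mM HEPES, 10 mM MgCl2, 1 mM EGTA, 2 mM DTT, 0.01% Tween-20. Test compounds (eleven-point series prepared at 4× final) preceded PASK and substrate/ATP. Reaction ran 2 h at 25 °C in the dark, then stopped. Phospho-ULight peptide detected by Eu-antibody TR-FRET, 665/615 nm ratio.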
In general terms: In TR-FRET formats the signal depends on donor and acceptor labels being close together.

In experiment [2] the target is CK2a2 (Homo sapiens (Human), UniProt P19784). The experiment can be described thus: Biochemical Assay for CK2 Activity. Conditions: 33P-ATP radiochemical assay; read-out: IC50 CK2 a2. The protocol: Biochemical Assay for CK2 Activity
Sequence of CK2a2 (P19784 whole entry): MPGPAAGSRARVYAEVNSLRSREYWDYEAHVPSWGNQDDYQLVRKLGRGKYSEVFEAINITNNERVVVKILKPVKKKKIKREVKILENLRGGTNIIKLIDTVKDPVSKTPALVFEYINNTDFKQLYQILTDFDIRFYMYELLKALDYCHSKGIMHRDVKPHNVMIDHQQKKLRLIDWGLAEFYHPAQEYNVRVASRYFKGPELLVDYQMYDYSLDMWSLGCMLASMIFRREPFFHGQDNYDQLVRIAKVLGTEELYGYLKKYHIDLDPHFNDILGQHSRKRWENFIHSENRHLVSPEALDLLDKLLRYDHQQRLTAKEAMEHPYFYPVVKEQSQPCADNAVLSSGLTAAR
Purified CK2a2 (NP_001887; human full-length protein, GST tagged) from insect cells (final concentration 1.2 nM) is added to freshly prepared Base Reaction Buffer containing 20 mM Hepes (pH 7.5), 10 mM MgCl2, 1 mM EGTA, 0.02% Brij35, 0.02 mg/ml BSA, 0.1 mM Na3VO4, 2 mM DTT, 1% DMSO and CK2 sub [RRRDDDSDDD] (20 μM final). Test compounds in DMSO are then added and the mixture, followed by delivery of ^33P-ATP (specific activity 0.01 μCi/μl final) to initiate the reaction. The kinase reaction is incubated for 120 min at room temperature. The entire reaction mixture is washed through onto a P81 Phosphocellulose paper and washed three times for 10 minutes in 75 mM phosphoric acid and once in methanol prior to drying and scintillation counting.

Experiment [3] concerns the target PASK (UniProt #Q96RG2; residues 879-1323) (Homo sapiens (Human), UniProt Q96RG2). The experiment can be described thus: PASK ATP Radiochemical Assay. It is filed as biochemical. Conditions: 33P-ATP radiochemical assay; read-out: IC50 Kinase Domain. The protocol:
PASK ATP Radiochemical Assay Purified PASK (UniProt #Q96RG2; human recombinant N-terminal GST tagged construct, residues 879-1323) from insect cells (final concentration 5 nM) is added to freshly prepared Base Reaction Buffer containing 20 mM HEPES (pH 7.5), 10 mM MgCl2, 1 mM EGTA, 0.02% Brij35, 0.02 mg/ml BSA, 0.1 mM Na3VO4, 2 mM DTT, 1% DMSO and Myelin Basic Protein (20 μM final). Test compounds in DMSO are then added and the mixture, followed by delivery of ^33P-ATP (specific activity 0.01 μCi/μl final) to initiate the reaction. The kinase reaction is incubated for 120 min at room temperature. The entire reaction mixture is washed through onto a P81 Phosphocellulose paper and washed three times for 10 minutes in 75 mM phosphoric acid and once in methanol prior to drying and scintillation counting.

For 24 molecules, IC50 results are on record in patent publication US10953012B2, “Heterocyclic compounds for the inhibition of pask” (BioEnergenix LLC, priority 2011, dated 2021).

What is called pIC50 is the negative decadic logarithm of the IC50, by convention in mol/L.

pIC50: −log10 of the molar value. Bounds are passed on as bounds.

Sequence of PASK (UniProt #Q96RG2; residues 879-1323) (Homo sapiens (Human), UniProt Q96RG2) (Q96RG2 879-1323): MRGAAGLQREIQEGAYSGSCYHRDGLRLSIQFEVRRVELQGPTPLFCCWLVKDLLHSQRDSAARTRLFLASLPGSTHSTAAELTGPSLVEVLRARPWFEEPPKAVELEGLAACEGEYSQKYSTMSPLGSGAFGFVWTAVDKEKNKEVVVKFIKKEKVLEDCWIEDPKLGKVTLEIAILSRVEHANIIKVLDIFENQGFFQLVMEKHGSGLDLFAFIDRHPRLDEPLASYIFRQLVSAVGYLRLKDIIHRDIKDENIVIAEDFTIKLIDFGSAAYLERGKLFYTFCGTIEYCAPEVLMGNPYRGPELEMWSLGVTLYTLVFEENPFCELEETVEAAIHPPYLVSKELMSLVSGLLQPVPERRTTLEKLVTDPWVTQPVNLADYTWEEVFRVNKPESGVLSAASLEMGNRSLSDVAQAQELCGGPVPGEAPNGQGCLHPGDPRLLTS
Sequence of PASK (Homo sapiens (Human), UniProt Q96RG2) (Q96RG2 999-1251): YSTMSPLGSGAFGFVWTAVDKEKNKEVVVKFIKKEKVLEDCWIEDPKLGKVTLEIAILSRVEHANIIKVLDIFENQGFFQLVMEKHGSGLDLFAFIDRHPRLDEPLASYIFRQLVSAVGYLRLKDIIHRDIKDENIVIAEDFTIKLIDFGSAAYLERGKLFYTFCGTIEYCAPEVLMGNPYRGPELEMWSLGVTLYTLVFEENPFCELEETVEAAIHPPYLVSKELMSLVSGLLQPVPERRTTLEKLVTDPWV

Turning to `CCCc1c(C)nn2c(=O)cc(-c3ccc(OC)cc3)[nH]c12` [Example 71, 5-(4-Methoxyphenyl)-2-methyl-3-propylpyrazolo[1,5-a]pyrimidin-7(4H)-one], the results for the pIC50 in experiment [1], in experiment [2] and in experiment [3] were at least 5.00, at most 5.00 and at least 5.00, respectively.
Consider `COc1ccc(-c2cc(=O)n3ncc(-c4cccnc4)c3[nH]2)cc1` [Example 72, 5-(4-Methoxyphenyl)-3-(pyridin-3-yl)pyrazolo[1,5-a]pyrimidin-7(4H)-one], for which the pIC50 in experiment [1], in experiment [2] and in experiment [3] was at least 5.00 each time.
As for `Cc1nn2c(=O)cc(-c3ccc4ncccc4c3)[nH]c2c1Cc1ccccc1` [Example 73, 3-Benzyl-2-methyl-5-(quinolin-6-yl)pyrazolo[1,5-a]pyrimidin-7(4H)-one], the pIC50 in experiment [1], in experiment [2] and in experiment [3] was at least 5.00 in each case.
As to `Cc1nn2c(=O)cc(-c3ccc4c(c3)OCO4)[nH]c2c1Cc1cccc(Cl)c1` [Example 75, 3-(3-Chlorobenzyl)-5-(benzo[d][1,3]dioxol-5-yl)-2-methylpyrazolo[1,5-a]pyrimidin-7(4H)-one], the pIC50 in experiment [1], in experiment [2] and in experiment [3] was at least 5.00 in each case.
Take `Cc1nn2c(=O)cc(-c3ccc4c(c3)OCO4)[nH]c2c1Cc1ccc(Cl)cc1` [Example 76, 3-(4-Chlorobenzyl)-5-(benzo[d][1,3]dioxol-5-yl)-2-methylpyrazolo[1,5-a]pyrimidin-7(4H)-one]: the pIC50 in experiment [1], in experiment [2] and in experiment [3] was at least 5.00 each time.
Take `Cc1nn2c(=O)cc(-c3ccc4c(c3)OCCO4)[nH]c2c1-c1ccc(F)cc1` [Example 81, 5-(2,3-Dihydrobenzo[b][1,4]dioxin-6-yl)-3-(4-fluorophenyl)-2-methylpyrazolo[1,5-a]pyrimidin-7(4H)-one]: the pIC50 in experiment [1], in experiment [2] and in experiment [3] was at least 5.00 in each case.
With `COc1cccc(-c2cnn3c(=O)cc(-c4ccc5c(c4)OCCO5)[nH]c23)c1` [Example 92, 5-(2,3-Dihydrobenzo[b][1,4]dioxin-6-yl)-3-(3-methoxyphenyl)pyrazolo[1,5-a]pyrimidin-7(4H)-one], the pIC50 in experiment [1], in experiment [2] and in experiment [3] was at least 5.00 each time.
Turning to `O=c1cc(-c2ccc3c(c2)CCO3)[nH]c2c(-c3ccccn3)cnn12` [Example 96, 5-(2,3-Dihydrobenzofuran-5-yl)-3-(pyridin-2-yl)pyrazolo[1,5-a]pyrimidin-7(4H)-one], the pIC50 in experiment [1], in experiment [2] and in experiment [3] was at least 5.00 in each case.
For the molecule `O=c1cc(-c2ccc3occc3c2)[nH]c2c(-c3ccccc3)cnn12` [Example 97, 5-(Benzofuran-5-yl)-3-phenylpyrazolo[1,5-a]pyrimidin-7(4H)-one], the pIC50 in experiment [1], in experiment [2] and in experiment [3] was at least 5.00 in each case.
Turning to `O=c1cc(-c2ccc3c(c2)CCO3)[nH]c2c(-c3ccccc3)cnn12` [Example 98, 5-(2,3-Dihydrobenzofuran-5-yl)-3-phenylpyrazolo[1,5-a]pyrimidin-7(4H)-one], the pIC50 in experiment [1], in experiment [2] and in experiment [3] was at least 5.00 in each case.
Consider `O=c1cc(-c2ccc3c(c2)CCO3)[nH]c2c(-c3cccnc3)cnn12` [Example 99, 5-(2,3-Dihydrobenzofuran-5-yl)-3-(pyridin-3-yl)pyrazolo[1,5-a]pyrimidin-7(4H)-one], for which the pIC50 in experiment [1], in experiment [2] and in experiment [3] was at least 5.00 throughout.
Take `O=c1cc(-c2ccc3c(c2)OCO3)[nH]c2c(-c3cccnc3)c(O)nn12` [Example 100, 5-(Benzo[d][1,3]dioxol-5-yl)-2-hydroxy-3-(pyridin-3-yl)pyrazolo[1,5-a]pyrimidin-7(4H)-one]: the pIC50 in experiment [1], in experiment [2] and in experiment [3] was at least 5.00 in each case.
With `O=c1cc(-c2ccc3c(c2)OCCO3)[nH]c2c(-c3ccccn3)c(O)nn12` [Example 102, 5-(2,3-Dihydrobenzo[b][1,4]dioxin-6-yl)-2-hydroxy-3-(pyridin-2-yl)pyrazolo[1,5-a]pyrimidin-7(4H)-one], the pIC50 in experiment [1], in experiment [2] and in experiment [3] was at least 5.00 in each case.
Consider `O=c1cc(-c2ccc3c(c2)OCCO3)[nH]c2c(-c3ccccc3)c(O)nn12` [Example 103, 5-(2,3-Dihydrobenzo[b][1,4]dioxin-6-yl)-2-hydroxy-3-phenylpyrazolo[1,5-a]pyrimidin-7(4H)-one], for which the pIC50 in experiment [1], in experiment [2] and in experiment [3] was at least 5.00 in each case.
As for `O=C(c1cnn2c(=O)cc(-c3ccc4c(c3)OCCO4)[nH]c12)N1CCOCC1` [Example 106, 5-(2,3-Dihydrobenzo[b][1,4]dioxin-6-yl)-3-(morpholine-4-carbonyl)pyrazolo[1,5-a]pyrimidin-7(4H)-one], the pIC50 in experiment [1], in experiment [2] and in experiment [3] was at least 5.00 each time.
Take `CN1CCN(C(=O)c2cnn3c(=O)cc(-c4ccc5c(c4)OCCO5)[nH]c23)CC1` [Example 107, 5-(2,3-Dihydrobenzo[b][1,4]dioxin-6-yl)-3-(4-methylpiperazine-1-carbonyl)pyrazolo[1,5-a]pyrimidin-7(4H)-one]: the pIC50 in experiment [1], in experiment [2] and in experiment [3] was at least 5.00 each time.
With `O=C(NCc1ccccc1)c1cnn2c(=O)cc(-c3ccc4c(c3)OCCO4)[nH]c12` [Example 108, N-Benzyl-5-(2,3-dihydrobenzo[b][1,4]dioxin-6-yl)-7-oxo-4,7-dihydropyrazolo[1,5-a]pyrimidine-3-carboxamide], the pIC50 in experiment [1], in experiment [2] and in experiment [3] was at least 5.00 each time.
As for `O=c1cc(-c2ccc(Cl)cc2)[nH]c2c(-c3ccccn3)cnn12` [Example 109, 5-(4-Chlorophenyl)-3-(pyridin-2-yl)pyrazolo[1,5-a]pyrimidin-7(4H)-one], the pIC50 in experiment [1], in experiment [2] and in experiment [3] was at least 5.00 in each case.
Regarding `COc1ccc(-c2cc(=O)n3ncc(-c4ccccn4)c3[nH]2)c(OC)c1` [Example 110, 5-(2,4-Dimethoxyphenyl)-3-(pyridin-2-yl)pyrazolo[1,5-a]pyrimidin-7(4H)-one], the pIC50 in experiment [1], in experiment [2] and in experiment [3] was at least 5.00 in each case.
Take `COc1ccc(-c2cc(=O)n3ncc(-c4ccccn4)c3[nH]2)cc1OC` [Example 111, 5-(3,4-Dimethoxyphenyl)-3-(pyridin-2-yl)pyrazolo[1,5-a]pyrimidin-7(4H)-one]: the pIC50 in experiment [1], in experiment [2] and in experiment [3] was at least 5.00 throughout.
For `N#Cc1cnn2c(=O)cc(-c3ccc4c(c3)OCCO4)[nH]c12` [Example 113, 5-(2,3-Dihydrobenzo[b][1,4]dioxin-6-yl)-7-oxo-4,7-dihydropyrazolo[1,5-a]pyrimidine-3-carbonitrile], the pIC50 in experiment [1], in experiment [2] and in experiment [3] was at least 5.00 in each case.
For `NC(=O)c1cnn2c(=O)cc(-c3ccc4c(c3)OCCO4)[nH]c12` [Example 114, 5-(2,3-Dihydrobenzo[b][1,4]dioxin-6-yl)-7-oxo-4,7-dihydropyrazolo[1,5-a]pyrimidine-3-carboxamide], the pIC50 in experiment [1], in experiment [2] and in experiment [3] was at least 5.00 throughout.
Turning to `O=c1c2c([nH]c3c(-c4ccccn4)cnn13)-c1ccccc1CC2` [Example 116, 11-(Pyridin-2-yl)-5,6-dihydrobenzo[h]pyrazolo[5,1-b]quinazolin-7(12H)-one], the pIC50 in experiment [1], in experiment [2] and in experiment [3] was at least 5.00 throughout.
As to `O=c1cc(-c2ccc3c(c2)OCCO3)[nH]c2c(-c3ccccc3)c(C(F)(F)F)nn12` [Example 117, 5-(2,3-Dihydrobenzo[b][1,4]dioxin-6-yl)-3-phenyl-2-(trifluoromethyl)pyrazolo[1,5-a]pyrimidin-7(4H)-one], the pIC50 in experiment [1], in experiment [2] and in experiment [3] was at least 5.00 each time.
